# According to US20220220106A1, “QUINOLINE COMPOUNDS AND PHARMACEUTICAL COMPOSITIONS AND USES THEREOF” (Academy of Military Medical Sciences, priority 2019, published 2022):
# What was measured:
# mTORC1 = biological target: T1, mTORC1 (Homo sapiens, UniProt P42345); experiment: Western blot, phosphorylation of Thr389 of p70S6K1 in RD cells (mTORC1 inhibition); type: cell-based; details: 20 μM, 2 hours, Western blot (FIG. 1)
# T1 construct: endogenous in cells; host or cells: RD cells
# Procedure: In order to test the inhibitory activity of the synthesized compounds on the two mTOR complexes, the inhibitory activity experiments of mTORC1 and mTORC2 were carried out. Since mTORC1 and mTORC2 exerted their function by activating the phosphorylation of downstream substrates, the inhibitory activity of the compounds on mTORC1 and mTORC2 could be determined by detecting the phosphorylation levels of the Thr389 site of mTORC1 downstream substrate p70S6K1 and the Ser473 site of mTORC2 downstream substrate Akt.
# Pretreatment of Compound:
# (1) RD cells were cultured in DMEM medium containing 10% FBS and 1×PS (penicillin and streptomycin were at concentrations 100 IU and 100 μg/mL, respectively) at 37° C. and 5% CO2.
# (2) The RD cells (5×10^5 cells/2 mL medium) were inoculated into a 6-well plate and incubated at 37° C. and 5% CO2 for 24 hours.
# (3) The cells were washed once with PBS, and the cells were cultured in serum-free medium without nutrients overnight.
# (4) Formulation of compounds: […]
# Preparation of insulin medium: Insulin was diluted in DMEM medium containing 10% FBS and 1×PS so that the final concentration of insulin was 167 nM.
# Pretreatment of compound to be tested: The compound was dissolved in DMSO so that the concentration of the test compound was 20 mM, and the compound was diluted in 167 nM insulin medium to reach a concentration of 20 μM.
# Preparation of rapamycin solution: Rapamycin was dissolved in DMSO to a concentration of 10 mM, and the rapamycin was diluted in 167 nM insulin medium to reach a concentration of 20 μM.
# (5) The serum-free medium in each well was removed.
# (6) 2 mL of complete medium containing DMSO was added to each well as a control carrier. The final concentration of DMSO was 0.2%.
# (7) 2 mL of 20 μM rapamycin solution and 20 μM the compound to be tested were added to the designated wells, respectively. The final concentration of DMSO was 0.2%.
# (8) The cells were incubated for 2 hours at 37° C. and 5% CO2.
# Protein extraction and concentration determination:
# (1) The cells were washed once with refrigerated PBS, and then the PBS was discarded.
# (2) 150 μL of cell extraction buffer (RIPA, […], catalog number: C1053) was transferred into each well to lyse the cells, and then the resulting cell solution were incubated on ice for 30 minutes.
# (3) Centrifugation was performed at 14000 rpm (13000× g) for 30 minutes at 4° C.
# (4) The supernatant was transferred into a new eppendorf tube, and the cell lysate was stored at −80° C. before testing.
# (5) The protein concentration was determined by BCA method.
# Preparation of Buffer Solutions:
# (1) 100× Protease inhibitor (Beyotime, catalog number: P1005): 1 mL of redistilled water was added to the protease inhibitor and stirred gently until the solid was completely dissolved.
# (2) Lysis Buffer: […] of 100× protease inhibitor and 2× phosphatase inhibitor Cocktails PhosSTOP (Beyotime, catalog number: P1082) were added to 100 mL of the cell extract, and stirred gently until it was completely dissolved.
# (3) Electrophoresis Running Buffer:
# 10×MOPS buffer: 52.33 g of MOPS, 30.29 g of Tris base, 10 mL of 0.5 mol/L EDTA (pH 8.5) and 5 g of SDS was dissolved in 400 mL of redistilled water, stirred to dissolve, and the pH was adjusted to 7.5, then redistilled water was added again to reach a volume of 500 mL; 1×MOPS: 100 mL of 10×MOPS was diluted with redistilled water to 1000 mL.
# (4) 1× Transfer Buffer: […] of 10× transfer buffer (144 g of glucine, 30.3 g of trisbase, and distilled water were mixed to reach a volume of 1 L) and 400 mL of methanol were dissolved in 1500 mL of redistilled water, and then the redistilled water was added to reach a volume of 2000 mL. […]
# [1] = Water solubility in saturated aqueous solution (HPLC, one-point method); type: physicochemical; details: for Water solubility: deionized water, 25° C.
# Procedure: By measuring the solubility of compound in a saturated aqueous solution, the water solubility of the compound was further investigated.
# Preparation of Supersaturated Solution:
# (1) About 1 mg of the compound to be tested was weighed and added to a 25 mL tube;
# (2) 5 mL of deionized water was added, shaken well, placed in a vortex shaker and mixed for 30 seconds, then treated ultrasonically for 30 seconds;
# (3) The tube was placed in a constant temperature water bath, and allowed to stand in a constant temperature water bath at 25° C. for 1 hour;
# (4) The operation of (2) was repeated, and the standing at constant temperature of 25° C. was continued for 1 hour;
# (5) The prepared supersaturated solution supernatant was taken out and placed in a centrifuge tube, centrifuged at 15000 rpm for 5 minutes, and the upper centrifugate was taken out for later use.
# Liquid Chromatography Method:
# (1) Chromatographic column: Agilent XDB Eclipse C18, 25 cm×4.6 mm×5 μm liquid chromatography column.
# (2) Mobile phase: Phase A: water (0.1% trifluoroacetic acid); Phase B: acetonitrile.
# (3) Flow rate: 1.0 mL/min.
# (4) Sampling volume: 10 μl.
# Preparation of standard solution: 1.0 mg of the sample to be tested was accurately weighed, added to a 10 mL volumetric flask, dissolved in methanol as solvent, metered to a constant volume of 10 mL, the concentration of solution was calculated, and it was used as a standard solution for later use.
# By using the one-point method, the chromatographic peak area of the standard solution of the sample to be tested was determined, and then the peak area of the supersaturated compound was determined, and the solubility of the compound to be tested in water was calculated accordingly.
Compound,p70 phosphorylation expression level (mTORC1),"water solubility, in words [1]",Water solubility [1]
"O=c1ccc2cnc3ccc(-c4cccnc4F)cc3c2n1-c1cccc(C(F)(F)F)c1 [HTL-6-48, 9-[3-(2-fluoro)pyridyl]-2-oxo-1-[3-(trifluoromethyl)phenyl]-1,2-dihydrobenzo [h][1,6]naphthyridine]",significantly down-regulate,relatively high water solubility,5.88 µg/mL
"CCC(=O)Nc1ccc(-c2ccc3ncc4ccc(=O)n(-c5cccc(C(F)(F)F)c5)c4c3c2)cn1 [HTL-6-45, 9-[3-(6-propionylamino)pyridyl]-2-oxo-1-[3-(trifluoromethyl)phenyl]-1,2-dihydrobenzo[h][1,6]naphthyridine]",significantly down-regulate,,0.39 µg/mL
"O=c1ccc2cnc3ccc(-c4ccc(F)nc4)cc3c2n1-c1cccc(C(F)(F)F)c1 [HTL-7-01, 9-[3-(6-fluoro)pyridyl]-2-oxo-1-[3-(trifluoromethyl)phenyl]-1,2-dihydrobenzo[h][1,6]naphthyridine]",significantly down-regulate,,0.42 µg/mL
"CN1CCN(c2ccc(-c3ccc4ncc5ccc(=O)n(-c6cccc(C(F)(F)F)c6)c5c4c3)cn2)CC1 [HTL-7-17, 9-{3-[6-(4-methylpiperazin-1-yl)pyridyl]}-2-oxo-1-[3-(trifluoromethyl)phenyl]-1,2-dihydrobenzo[h][1,6]naphthyridine]",significantly down-regulate,relatively high water solubility,18.64 µg/mL
"COc1ccc(-c2ccc3ncc4ccc(=O)n(-c5cccc(C(F)(F)F)c5)c4c3c2)cn1 [HTL-7-03, 9-[3-(6-methoxy)pyridyl]-2-oxo-1-[3-(trifluoromethyl)phenyl]-1,2-dihydrobenzo[h][1,6]naphthyridine]",significantly down-regulate,,0.61 µg/mL
